Experimental data: PMC6587507, “Comparison of the metabolism of 10 chemicals in human and pig skin explants” (Journal of Applied Toxicology, 2018)
Where two headings read alike, the source gives them in different places. Marks after values point to notes of the source that are not given here.

Experiments:
pig ear skin explants [1] = assay: Cutaneous distribution and mass balance of radioactivity in pig skin explants
Procedure: (§1) Human abdominal skin was obtained (with consent for research from a commercial supplier [L’Union Clinic, Rangueil hospital and Icelltis, Toulouse, France] with certified ethical procedures) from six male and 34 female healthy donors, 41 ± 11 years of age, undergoing cosmetic surgery. Abdominal skin was kept at 4°C during transports and placed in culture within 3 hours of surgery. Pig ear skin was a waste product of the meat industry (without hot steam treatment) from domestic pigs (female Pietrain breed, 6 months old, 80‐100 kg) obtained from a local slaughterhouse (Montauban, France). Ears were taken from the animals within 5 minutes of slaughter and were kept at 4°C during transport to the laboratory, which lasted a maximum of 2 hours. Pig skin samples were dried and then gently shaved.
(§2) The experiment and the preparation of the culture medium were performed under sterile conditions. Human and pig skin was cut with a dermatome to a thickness of 450 ± 50 μm. Skin punches were seeded dermal side down in polycarbonate Transwell® inserts from Corning Life Sciences (Avon, France; 4.16 cm^2 application area with an 8 μm pore size filter). […] The inserts were placed in a six‐well plate containing 1.5 mL culture medium and the skin explants incubated in a standard incubator at 37°C, under an atmosphere of 5% CO2 and 50 ± 10% relative humidity. The culture medium was Dulbecco's modified Eagle medium without phenol red supplemented with 8 mM L‐glutamine, 2 μg/mL streptomycin/penicillin, 25 ng/mL fungizone and 50 ng/mL gentamycin. Skin explants were incubated for 1 hour before application of the formulation.
(§3) The dosing volume was 10 μL/cm^2. For pig skin metabolism studies, which were carried out before the human skin experiments to ensure the analytics were optimal, 2.4 nmol/cm^2 of each chemical (only the ^14C‐labeled form) was applied on the skin and incubated for 24 hours for the measurement of metabolites in the medium. These tissues were further incubated for a total of 48 hours, with a replacement of the culture medium after 24 hours. This longer incubation time and the standard doses of 2.4 nmol/cm^2 were used to maximize the likelihood of the skin forming metabolites to develop analytical methods. The metabolites profiles in pig and human skin were compared in the medium sample at 24 hours of incubation. The metabolite profiles for the 48‐hour timepoint are not reported here since humans skin metabolism was measured at 24 hours only; however, for completeness, the distribution of radioactivity at the end of both pig (48 hours) and human (24 hours) skin incubations is reported. […] The doses were obtained by mixing radiolabeled and cold chemical. One replicate disc per donor and per dose was used. All chemicals were tested on four donors of pig and human skin, except for 2‐AAF and 4‐amino‐3‐nitrophenol (4‐A‐3‐NP), for which three donors were used. The medium was removed after 24 hours of incubation and stored at −20°C for analysis.
(§4) At the end of the experiment, the trans‐wells were dismantled and washed with appropriate solvent for each chemical. […] The cotton swabs were placed in 5 mL of appropriate solvent in a scintillation counting flask and placed in a sonicator bath for 20 minutes. Aliquots of 1 mL were counted by liquid scintillation, after addition of 15 mL of scintillation liquid. Tissue culture inserts were washed with 10 mL of appropriate solvent. One aliquot of 1 mL was counted by liquid scintillation, after addition of 15 mL of scintillation liquid. After media removal, wells were washed twice with 1 mL of the appropriate solvent. Washing solutions were counted by liquid scintillation, after addition of 15 mL of scintillation liquid.
(§5) Pig skin explants were digested using 3 mL Soluable (60°C for 24 hours) and counted by liquid scintillation. Skin extraction process was adapted according to the physicochemical properties of each chemical and its potential metabolites.

[2] = system: human abdominal skin explants; assay: Cutaneous distribution and mass balance of radioactivity in human skin explants
Procedure: as §1, §2, §3, §4, §5

[3] = ref Chemspider (www.chemspider.com), cited from earlier work
[4] = system: human abdominal skin explants
Procedure: as §1, §2, §3
(§6) After centrifugation, a 100 μL aliquot of the extract was counted by liquid scintillation. The pellet was dissolved in 3 mL Soluable (60°C, 24 hours) and then counted by liquid scintillation.
(§7) Analysis of the chemicals and their metabolites in medium after 24 hours of incubation with pig and human skin was measured by radio‐high‐performance liquid chromatography (HPLC) using an HPLC 1100 Series, Agilent and a Flow Scintillation Analyzer, Radiomatic 610 TR, Perkin Elmer (Villebon‐sur‐Yvette, France). […] To confirm that metabolites were the same in pig and human skin, medium samples were co‐injected on the new column. The metabolites were identified by LC‐electrospray ionization‐HRMS (HPLC‐ESI‐HRMS) with a RSLC3000 HPLC system coupled to a LTQ‐Orbitrap XL mass spectrometer (Thermo Scientific). The HPLC analytical conditions for identification and quantification of the metabolites for each chemical are summarized in Supporting information Table S1.

pig ear skin explants [5] = system: pig ear skin explants
Procedure: as §1, §2, §3, §6, §7

[6] = pig skin, end of incubation (48 h), mean ± SD
[7] = human skin, end of incubation (24 h), mean ± SD
[8] = cinnamyl alcohol applied to human skin, 24 h
[9] = cinnamyl alcohol applied to pig skin, 24 h
[10] = cinnamyl alcohol applied to pig skin, medium 24 h
[11] = propyl paraben applied to human skin, 24 h
[12] = propyl paraben applied to pig skin, 24 h
[13] = vanillin applied to human skin, 24 h
[14] = vanillin applied to pig skin, 24 h

CC(=O)Nc1ccc2c(c1)Cc1ccccc1-2 [2‐AAF, 2‐acetyl aminofluorene]
% Radioactivity in culture media after 24 h (pig ear skin explants [1]; pig skin, 2.4 nmol/cm^2): 52.8 ± 2.3% | Mass balance (% of applied dose at end of incubation) (pig ear skin explants [1]; pig skin, 48 h, 2.4 nmol/cm^2): 87.8 ± 1.1 % of applied dose | Medium radioactivity (pig ear skin explants [1]; [6]): 73.9 ± 1.1 % of the applied dose | Skin radioactivity (pig ear skin explants [1]; [6]): 12.6 ± 1.5 % of the applied dose | Skin surface radioactivity (pig ear skin explants [1]; [6]): 1.4 ± 0.4 % of the applied dose | % Radioactivity in culture media after 24 h ([2]; human skin, 24 h): 48.3 ± 4.2% | Mass balance (% of applied dose at end of incubation) ([2]; human skin, 24 h): 91.6 ± 4.5 % of applied dose | Medium radioactivity [2, 7]: 48.3 ± 4.2 % of the applied dose | Skin radioactivity [2, 7]: 40.5 ± 5.5 % of the applied dose | Skin surface radioactivity [2, 7]: 2.8 ± 0.3 % of the applied dose | Maximum solubility in ethanol ([3]; in ethanol): 9600 µg/mL | LogP [3]: 3.10 | Maximum water solubility ([3]; water): 4 µg/mL

Nc1ccc(OC2OC(C(=O)O)C(O)C(O)C2O)cc1[N+](=O)[O-] (stereo not shown) [4‐A‐3‐NP‐glucuronide]
Amount of metabolite in the medium after 24 h [4]: 35.0 ± 2.4 % Applied dose | Amount of metabolite in the medium after 24 h (pig ear skin explants [5]): 45.5 ± 0.2 % Applied dose

Nc1ccc(OS(=O)(=O)O)cc1[N+](=O)[O-] [4‐A‐3‐NP‐sulfate]
Amount of metabolite in the medium after 24 h [4]: 9.98 ± 2.7 % Applied dose | Amount of metabolite in the medium after 24 h (pig ear skin explants [5]): 1.8 ± 0.3 % Applied dose

O=C(O)c1ccccc1 [B (benzoic acid), benzoic acid]
Amount of metabolite in the medium after 24 h [4, 8]: 0.0 ^* % Applied dose | Amount of metabolite in the medium after 24 h (pig ear skin explants [5]; [9]): 4.8 ± 1.0 % Applied dose | Metabolite as share of the total metabolites (pig ear skin explants [5]; [10]): 8 % of the total metabolites

Cn1c(=O)c2c(ncn2C)n(C)c1=O [Caffeine]
% Radioactivity in culture media after 24 h (pig ear skin explants [1]; pig skin, 2.4 nmol/cm^2): 72.0 ± 4.0% | Mass balance (% of applied dose at end of incubation) (pig ear skin explants [1]; pig skin, 48 h, 2.4 nmol/cm^2): 109.2 ± 3.3 % of applied dose | Skin radioactivity (pig ear skin explants [1]; [6]): 8.4 ± 0.4 % of the applied dose | Skin surface radioactivity (pig ear skin explants [1]; [6]): 8.8 ± 10.6 % of the applied dose | % Radioactivity in culture media after 24 h ([2]; human skin, 24 h): 81.4 ± 3.3% | Mass balance (% of applied dose at end of incubation) ([2]; human skin, 24 h): 104.0 ± 0.7 % of applied dose | Medium radioactivity [2, 7]: 81.4 ± 3.3 % of the applied dose | Skin radioactivity [2, 7]: 21.8 ± 2.5 % of the applied dose | Skin surface radioactivity [2, 7]: 0.8 ± 0.8 % of the applied dose

O=c1ccc2ccc(O)cc2o1 [HC, 7‐hydroxycoumarin]
Amount of metabolite in the medium after 24 h ([4]; 7‐EC applied to human skin, 24 h): 1.4 ± 0.4 % Applied dose | Amount of metabolite in the medium after 24 h (pig ear skin explants [5]; 7‐EC applied to pig skin, 24 h): 1.5 ± 0.8 % Applied dose

O=C(O)[C@H]1O[C@@H](Oc2ccc3ccc(=O)oc3c2)[C@H](O)[C@@H](O)[C@@H]1O [HC‐glucuronide]
Amount of metabolite in the medium after 24 h [4]: 2.2 ± 1.2 % Applied dose | Amount of metabolite in the medium after 24 h (pig ear skin explants [5]): 4.9 ± 0.9 % Applied dose

O=c1ccc2ccc(OS(=O)(=O)[O-])cc2o1.[K+] [HC‐sulfate]
Amount of metabolite in the medium after 24 h [4]: 0.9 ± 0.6 % Applied dose | Amount of metabolite in the medium after 24 h (pig ear skin explants [5]): 2.6 ± 0.9 % Applied dose

O=C(O[C@@H]1O[C@H](C(=O)O)[C@@H](O)[C@H](O)[C@H]1O)c1ccccc1 [II (benzoic acid glucuronide), benzoic acid glucuronide]
Amount of metabolite in the medium after 24 h [4]: 4.6 ± 0.4 % Applied dose | Amount of metabolite in the medium after 24 h (pig ear skin explants [5]): 0.5 ± 0.04 % Applied dose

O=C(O)/C=C\C(=O)O [II (maleic acid), maleic acid]
Amount of metabolite in the medium after 24 h [4, 11]: 0.5 ± 0.03 % Applied dose | Amount of metabolite in the medium after 24 h (pig ear skin explants [5]; [12]): 5.6 ± 0.3 % Applied dose

COc1cc(C=O)ccc1O[C@@H]1O[C@H](C(=O)O)[C@@H](O)[C@H](O)[C@H]1O [III (vanillin glucuronide), vanillin glucuronide]
Amount of metabolite in the medium after 24 h (pig ear skin explants [5]): 2.9 ± 0.8 % Applied dose

O=Cc1ccc(O)c(O)c1 [IV (Protocatechuic aldehyde), protocatechuic aldehyde]
Amount of metabolite in the medium after 24 h [4, 13]: 2.4 ± 1.1 % Applied dose | Amount of metabolite in the medium after 24 h (pig ear skin explants [5]; [14]): 20.7 ± 1.0 % Applied dose | Amount of metabolite in the medium after 24 h (pig ear skin explants [5]; vanillin applied to pig skin, 24 h, listed as protocatechuic aldehyde): 21 % Applied dose

CCCOC(=O)c1ccc(O)cc1 [Propyl paraben]
Mass balance (% of applied dose at end of incubation) (pig ear skin explants [1]; female, Pietrain, pig, 48 h): 98.7 ± 3.3 % of applied dose | Medium radioactivity (pig ear skin explants [1]; female, Pietrain, pig, 48 h): 77.8 ± 4.8 % of the applied dose | Skin radioactivity (pig ear skin explants [1]; female, Pietrain, pig, 48 h): 15.9 ± 3.0 % of the applied dose | Skin surface radioactivity (pig ear skin explants [1]; female, Pietrain, pig, 48 h): 5.0 ± 1.8 % of the applied dose | % Radioactivity in culture media after 24 h ([2]; both, human, 24 h): 66.0 ± 9.2% | Mass balance (% of applied dose at end of incubation) ([2]; both, human, 24 h): 91.8 ± 6.6 % of applied dose | Medium radioactivity ([2]; both, human, 24 h): 61.5 ± 3.9 % of the applied dose | Skin radioactivity ([2]; both, human, 24 h): 27.6 ± 7.0 % of the applied dose | Skin surface radioactivity ([2]; both, human, 24 h): 2.8 ± 2.3 % of the applied dose | Number of metabolites detected in the culture medium ([4]; both, human, 24 h): 12 | Parent compound in the medium after 24 h ([4]; both, human, 24 h): 0.2 ± 0.2 % Applied dose | Total metabolites in the medium after 24 h ([4]; both, human, 24 h): 55.8 ± 2.9 % Applied dose | Parent compound in the medium after 24 h (pig ear skin explants [5]; female, Pietrain, pig, 24 h): 0.0 % Applied dose | Total metabolites in the medium after 24 h (pig ear skin explants [5]; female, Pietrain, pig, 24 h): 50.3 ± 1.1 % Applied dose

O=C(O)C1OC(Oc2cccc(O)c2)C(O)C(O)C1O (stereo not shown) [R‐glucuronide]
Amount of metabolite in the medium after 24 h [4]: 33.7 ± 0.6 % Applied dose | Amount of metabolite in the medium after 24 h (pig ear skin explants [5]): 48.6 ± 0.8 % Applied dose

O=S(=O)(O)Oc1cccc(O)c1 [R‐sulfate]
Amount of metabolite in the medium after 24 h [4]: 8.2 ± 0.1 % Applied dose | Amount of metabolite in the medium after 24 h (pig ear skin explants [5]): 0.5 ± 0.03 % Applied dose

O=C(O)CNC(=O)c1ccccc1 [V (benzoic acid‐glycine conjugate), benzoylglycine]
Amount of metabolite in the medium after 24 h [4, 8]: 1.3 ± 0.1 % Applied dose | Amount of metabolite in the medium after 24 h (pig ear skin explants [5]; [9]): 4.4 ± 1.1 % Applied dose

COc1cc(C(=O)O)ccc1O [V (vanillic acid), vanillic acid]
Amount of metabolite in the medium after 24 h [4, 13]: 33.5 ± 4.0 % Applied dose | Amount of metabolite in the medium after 24 h ([4]; vanillin applied to human skin, 24 h, listed as vanillic acid): 34 % Applied dose | Amount of metabolite in the medium after 24 h (pig ear skin explants [5]; [14]): 5.8 ± 0.1 % Applied dose

O=C(O)/C=C/c1ccccc1 [VI (cinnamic acid), cinnamic acid]
Amount of metabolite in the medium after 24 h [4, 8]: 0.8 ± 1.5 % Applied dose | Amount of metabolite in the medium after 24 h (pig ear skin explants [5]; [9]): 9.0 ± 0.4 % Applied dose | Metabolite as share of the total metabolites (pig ear skin explants [5]; [10]): 15 % of the total metabolites

O=C(O)c1ccc(O)cc1 [X (4‐HBA), 4‐hydroxybenzoic acid]
Amount of metabolite in the medium after 24 h [4, 11]: 42.09 ± 2.8 % Applied dose | Amount of metabolite in the medium after 24 h (pig ear skin explants [5]; [12]): 9.5 ± 0.6 % Applied dose | Amount of metabolite in the medium after 24 h (pig ear skin explants [5]; propyl paraben applied to pig skin, 24 h, listed as 4‐hydroxybenzoic acid): 9.5 % Applied dose

hydroxycinnamic acid [I (HCA)]
Amount of metabolite in the medium after 24 h [4]: 18.0 ± 0.9 % Applied dose | Metabolite as share of the total metabolites [4]: 25 % of the total metabolites | Amount of metabolite in the medium after 24 h (pig ear skin explants [5]): 15.7 ± 1.3 % Applied dose | Metabolite as share of the total metabolites (pig ear skin explants [5]): 27 % of the total metabolites
